System: 3T3 L1 fibroblasts
Test: RT-PCR analysis of adipocyte specific transcripts as secondary test of adipocyte differentiation
Format: cell-based
Conditions: with 10 μg/ml insulin
Procedure: N-arachidonoyl-D-alanine is subjected to the Oil Red O assay, discussed in more detail supra. In the assay, 3T3 L1 fibroblasts are cultured in DMEM supplemented with 10% calf serum. Two days after confluence, cells are treated with 0.1% DMSO (vehicle), 20-100 μM N-arachidonoyl-D-alanine in vehicle, or 1 μM GW347845 (Cobb et al., J. Med. Chem., 41:5055-5069, 1998) in vehicle. Each of the three treatments is administered to the cells with 10 μg/ml of insulin. After seven days of treatment with GW347845 and 10-14 days of treatment with N-arachidonoyl-D-alanine, cells are fixed and stained with Oil Red O. Red staining indicates lipid droplets in the cytoplasm. RT-PCR analysis of expressed genes is performed as a secondary test of adipocyte differentiation. Messenger RNA from fibroblasts is harvested and RT-PCR is performed to amplify adipocyte specific transcripts, e.g., PPARγ2 and aP2, or the transcript of a ubiquitous housekeeping gene, e.g., GAPDH. PCR products are analyzed on 1% agarose gel and stained with ethidium bromide. […] Expression of the housekeeping gene GAPDH is assayed to ensure equal expression in all samples.

[1] = 20-100 μM, 10-14 days of treatment

SMILES | PPARγ2 transcript induction relative to vehicle-treated cells (RT-PCR) (1 μM, seven days of treatment) | aP2 transcript induction relative to vehicle-treated cells (RT-PCR) (1 μM, seven days of treatment) | PPARγ2 transcript induction relative to vehicle-treated cells (RT-PCR) [1] | aP2 transcript induction relative to vehicle-treated cells (RT-PCR) [1]
COC(=O)c1ccccc1N[C@@H](Cc1ccc(OCCc2nc(-c3ccccc3)oc2C)cc1)C(=O)O [GW347845] | induced significantly | induced significantly |  | 
CCCCC/C=C\C/C=C\C/C=C\C/C=C\CCCC(=O)N[C@H](C)C(=O)O [N-arachidonoyl-D-alanine] |  |  | induced significantly | induced significantly

Reference: patent publication US7544714B2, “Lipid-amino acid conjugates and methods of use” (University of Massachusetts, priority 2004, dated 2009)
